Laboratory results taken from article PMC6175577, “BRCT domains of the DNA damage checkpoint proteins TOPBP1/Rad4 display distinct specificities for phosphopeptide ligands” (eLife, 2018).
Values belong to the compound of their own block, whether it stands above or below them. Where a SMILES comes first, the peptide text is derived from it. [ ]: non-standard residue; d: D form. The star is where a group is joined. 5FAM = O=C1OC2(c3ccc(O)cc3Oc3cc(O)ccc32)c2ccc(C(=O)*)cc21; pT = C[C@@H](OP(=O)(O)O)[C@H](N)C(=O)O; pS = N[C@@H](COP(=O)(O)O)C(=O)O

Assays:
[1] = molecular target: T1, TOPBP1-BRCT4,5 (Homo sapiens, UniProt Q92547); assay: Fluorescence polarisation titration, TOPBP1-BRCT4,5; assay type: binding; conditions: read-out: Kd
T1 construct: made in house; host or cells: E. coli BL21(DE3)
Protocol: (§1) Fluorescein-labelled peptides (Peptide Protein Research Ltd, Fareham, UK) at a concentration of 200 nM, were incubated at room temperature with increasing concentrations of recombinant protein in 25 mM HEPES pH 7.5, 150 mM NaCl, 1 mM EDTA, 0.25 mM TCEP, 0.02% (v/v) Tween-20. Four parallel replicates of each titration were dispensed into a black 96-well polypropylene plate (VWR, Lutterworth, UK) for measurement. Fluorescence polarisation was measured in a CLARIOstar multimode microplate reader (BMG Labtech, Aylesbury, UK). Binding curves represent the mean of 4 independent experiments, with error bars indicating one standard deviation. All data were fitted by non-linear regression, to a one site-specific binding model in Prism seven for Mac OS X (v 7.0d, GraphPad Software) in order to calculate the reported dissociation constants (Kd). Low-affinity non-specific responses for which a binding curve could not be determined are marked as ND.

[2] = molecular target: T2, TOPBP1-BRCT7,8 (Homo sapiens, UniProt Q92547); assay: Fluorescence polarisation titration, TOPBP1-BRCT7,8; assay type: binding
T2 construct: made in house; host or cells: E. coli BL21(DE3)
Protocol: as §1

[3] = molecular target: T3, SpNbs1 (Schizosaccharomyces pombe, UniProt O43070); assay: Fluorescence polarisation titration, SpNbs1; assay type: binding, S. pombe; conditions: FP, fluorescein-peptide 200 nM, HEPES pH 7.5, room temperature, one-site fit, 4 replicates
T3 construct: made in house; host or cells: E. coli BL21(DE3)
T3 sequence (O43070 1-613): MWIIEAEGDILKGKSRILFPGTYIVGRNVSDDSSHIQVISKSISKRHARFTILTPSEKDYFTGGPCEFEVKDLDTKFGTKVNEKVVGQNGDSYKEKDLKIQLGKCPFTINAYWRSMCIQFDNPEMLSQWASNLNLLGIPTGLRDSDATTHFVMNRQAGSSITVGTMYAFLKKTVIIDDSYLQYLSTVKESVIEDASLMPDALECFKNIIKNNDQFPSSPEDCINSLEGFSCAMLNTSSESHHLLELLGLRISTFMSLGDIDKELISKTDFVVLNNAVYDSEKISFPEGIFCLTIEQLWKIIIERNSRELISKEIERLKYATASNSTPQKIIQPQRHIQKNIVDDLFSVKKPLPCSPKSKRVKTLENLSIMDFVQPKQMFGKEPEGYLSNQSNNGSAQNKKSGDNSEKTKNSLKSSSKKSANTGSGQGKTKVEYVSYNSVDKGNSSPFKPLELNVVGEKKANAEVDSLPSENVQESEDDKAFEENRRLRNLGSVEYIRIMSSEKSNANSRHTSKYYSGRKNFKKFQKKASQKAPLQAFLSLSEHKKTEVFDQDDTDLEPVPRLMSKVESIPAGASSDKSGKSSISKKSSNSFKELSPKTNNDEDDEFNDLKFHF
Protocol: as §1

[4] = molecular target: T4, Rad4-BRCT1,2 WT (Schizosaccharomyces pombe, UniProt P32372); assay: Fluorescence polarisation titration, Rad4-BRCT1,2 wild-type; conditions: FP, fluorescein-peptide 200 nM, HEPES pH 7.5, room temperature, one-site fit, 4 replicates; ND = low-affinity non-specific response, no binding curve
T4 construct: made in house; host or cells: E. coli BL21(DE3)
T4 sequence (P32372 1-186 limits assumed): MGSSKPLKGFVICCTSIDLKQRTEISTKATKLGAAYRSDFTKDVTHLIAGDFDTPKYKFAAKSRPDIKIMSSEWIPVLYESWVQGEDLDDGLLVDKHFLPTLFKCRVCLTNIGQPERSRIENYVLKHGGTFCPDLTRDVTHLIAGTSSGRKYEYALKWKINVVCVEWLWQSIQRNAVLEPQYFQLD
Protocol: as §1

[5] = molecular target: T5, Rad4-BRCT3,4 (Schizosaccharomyces pombe, UniProt P32372); assay: Fluorescence polarisation titration, Rad4-BRCT3,4; conditions: FP, fluorescein-peptide 200 nM, HEPES pH 7.5, room temperature; ND = low-affinity non-specific response, no binding curve
T5 construct: made in house; host or cells: E. coli BL21(DE3)
T5 sequence (P32372 291-494 limits assumed): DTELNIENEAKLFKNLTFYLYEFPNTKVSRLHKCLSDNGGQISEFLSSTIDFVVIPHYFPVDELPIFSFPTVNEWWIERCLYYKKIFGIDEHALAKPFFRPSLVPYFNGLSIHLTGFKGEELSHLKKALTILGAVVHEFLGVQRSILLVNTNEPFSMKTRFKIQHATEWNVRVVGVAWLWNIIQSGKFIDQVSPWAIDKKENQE
Protocol: as §1

T2 sequence (Q92547 1264-1493 limits assumed): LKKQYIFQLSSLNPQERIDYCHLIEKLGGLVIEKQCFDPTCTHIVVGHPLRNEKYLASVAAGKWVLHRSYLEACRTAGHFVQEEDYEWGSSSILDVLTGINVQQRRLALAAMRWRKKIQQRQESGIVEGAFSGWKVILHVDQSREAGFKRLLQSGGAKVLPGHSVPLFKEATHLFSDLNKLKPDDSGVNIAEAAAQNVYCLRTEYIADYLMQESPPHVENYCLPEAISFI
T1 sequence (Q92547 549-746 limits assumed): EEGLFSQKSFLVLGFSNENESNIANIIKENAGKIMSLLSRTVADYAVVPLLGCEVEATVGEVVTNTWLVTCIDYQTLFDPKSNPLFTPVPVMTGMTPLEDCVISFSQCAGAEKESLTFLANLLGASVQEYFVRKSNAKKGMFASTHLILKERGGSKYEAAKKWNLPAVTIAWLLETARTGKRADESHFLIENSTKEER

Kd [1]: 3.46 ± 0.54 µM
Structure (SMILES): CC[C@H](C)[C@H](NC(=O)[C@H](CCC(=O)O)NC(=O)[C@H](CCC(=O)O)NC(=O)[C@@H]1CCCN1C(=O)[C@H](COP(=O)(O)O)NC(=O)[C@@H]1CCCN1C(=O)[C@@H]1CCCN1C(=O)[C@@H](NC(=O)[C@H](Cc1ccccc1)NC(=O)[C@H](CC(=O)O)NC(=O)[C@@H](NC(=O)[C@H](CC(=O)O)NC(=O)CNC(=O)[C@H](Cc1ccc(O)cc1)NC(=O)CNC(=O)c1ccc2c(c1)C(=O)OC21c2ccc(O)cc2Oc2cc(O)ccc21)[C@@H](C)O)C(C)C)C(=O)N[C@H](C(=O)N[C@@H](CO)C(=O)N[C@@H](C)C(=O)O)[C@@H](C)CC [BLM pS304, reference compound] (5FAM-GYGDTDFVPP[pS]PEEIISA-OH)

Structure (SMILES): CC[C@H](C)[C@H](NC(=O)[C@H](CO)NC(=O)[C@H](CCC(=O)O)NC(=O)[C@H](CC(=O)O)NC(=O)[C@H](CCC(=O)O)NC(=O)CNC(=O)[C@H](Cc1ccc(O)cc1)NC(=O)CNC(=O)c1ccc2c(c1)C(=O)OC21c2ccc(O)cc2Oc2cc(O)ccc21)C(=O)N[C@@H](Cc1ccc(O)cc1)C(=O)N[C@@H](Cc1ccccc1)C(=O)N[C@H](C(=O)N1CCC[C@H]1C(=O)N[C@@H](CCC(=O)O)C(=O)N[C@@H](CC(C)C)C(=O)N[C@@H](Cc1ccc(O)cc1)C(=O)N[C@@H](CC(=O)O)C(=O)N1CCC[C@H]1C(=O)N[C@@H](CCC(=O)O)C(=O)O)[C@@H](C)OP(=O)(O)O [FANCJ pT1133, reference compound] (5FAM-GYGEDESIYF[pT]PELYDPE-OH)
Kd [2]: 0.14 ± 0.01 µM

Kd [3]: sub-micromolar affinity
Kd [4]: no binding was observed
Kd [5]: no binding was observed
Structure (SMILES): CC(C)[C@H](NC(=O)CNC(=O)[C@H](Cc1ccc(O)cc1)NC(=O)CNC(=O)c1ccc2c(c1)C(=O)OC21c2ccc(O)cc2Oc2cc(O)ccc21)C(=O)N[C@@H](CCC(=O)O)C(=O)NCC(=O)N[C@@H](CC(=O)O)C(=O)N[C@@H](Cc1c[nH]cn1)C(=O)N[C@@H](CO)C(=O)N[C@@H](COP(=O)(O)O)C(=O)N[C@@H](CC(=O)O)C(=O)N[C@H](C(=O)N[C@@H](CCC(=O)O)C(=O)N[C@@H](CCC(=O)O)C(=O)N[C@@H](CCC(=O)O)C(=O)N[C@H](C(=O)N[C@H](C(=O)N[C@@H](CO)C(=O)O)C(C)C)C(C)C)[C@@H](C)OP(=O)(O)O [Mdb1 pS216, pT218] (5FAM-GYGVEGDHS[pS]D[pT]EEEVVS-OH)
